Read-outs that look alike come from different tables or passages of the source.
Experiments:
[1] = tested on: PfCRT; assay: Test of solutes as potential co-substrates for influx of VF-6 via PfCRT into the oocyte; assay type: cell-based, Plasmodium falciparum; set-up: key: X: Compounds that have been tested as potential co-substrates but are not required for influx of VF-6 via PfCRT into the oocyte; settings: X = tested
[2] = biological target: T1, PfCRT^Ecu1110 (Plasmodium falciparum, UniProt Q9N623, A220S/I356L/K76T/N326D); assay: [3H]CQ uptake into Xenopus oocytes, cis-inhibition by unlabelled solute; assay type: cell-based
In short: (§1)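 Each treatment used ten oocytes, repeated in at least four experiments on different days with oocytes from different frogs. Conditions: ND96 pH 5.5, 27.5 °C, 1.5 h; read-out by scintillation counting.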

[3] = biological target: T2, PfCRT^Dd2 (Plasmodium falciparum, UniProt Q9N623, A220S/I356T/K76T/M74I/N326S/N75E/Q271E/R371I); assay: as above; assay type: cell-based
In short: as §1

[4] = tested on: non-expressing oocytes; assay type: cell-based, Xenopus laevis; settings: total [3H]CQ transport; for Uptake of [3H]CQ (% non-expressing oocyte control), trans-stimulation: non-expressing oocytes, normalised to the oocyte type control; for Uptake of [3H]CQ (% PfCRTDd2 control), trans-stimulation, non-expressing oocytes: mean ± SEM, SEM
In short: (§2)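 Oocytes (ten per treatment, ≥4 independent frogs/days) were preloaded by injecting VF-6 in 25 nL ND96 at pH 5.0, 5.5, 6.0 or 7.0, or Na^+-free choline buffer, then uptake run 1.5 h, 27.5 °C, ND96 pH 5.5 by default. Internal concentrations assumed ~400 nL oocyte volume.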

[5] = tested on: PfCRT; assay: Potential co-substrates tested for influx of VF-6 via PfCRT into the oocyte; assay type: cell-based, Plasmodium falciparum; set-up: key: X: Compounds that have been tested as potential co-substrates but are not required for influx of VF-6 via PfCRT into the oocyte
[6] = tested on: non-expressing oocytes; assay: cells; assay type: cell-based, Xenopus laevis; settings: Xenopus laevis, total [3H]CQ transport; for inhibition at 500 µM: [test solute] = 0.5 mM; for inhibition at 1000 µM: [test solute] = 1 mM; for inhibition at 2000 µM: [test solute] = 2 mM
In short: as §1

[7] = biological target: T3, PfCRT^3D7 (Plasmodium falciparum, UniProt Q8IBZ9); assay: cell-based; assay type: cell-based
In short: as §2

[8] = biological target: T1, PfCRT^Ecu1110; assay: cell-based; assay type: cell-based; settings: […]
In short: as §2

[9] = biological target: T2, PfCRT^Dd2; assay: cell-based; assay type: cell-based; settings: […]; for activity at 45000 µM: [test solute]i = 45 mM (30 mM for some solutes due to solubility)
In short: as §2

[10] = biological target: T4, PfNT1 (Plasmodium falciparum, UniProt Q8IDM6); assay: cell-based; assay type: cell-based; settings: for activity at 5000 µM: total [3H]CQ transport
T4 construct: expressed in transfected cells; host or cells: Xenopus laevis oocytes (stage V-VI), cRNA-injected
In short: as §2

[11] = biological target: T3, PfCRT^3D7; assay: cell-based; assay type: cell-based; settings: total [3H]CQ transport; for inhibition at 500 µM: [test solute] = 0.5 mM; for inhibition at 1000 µM: [test solute] = 1 mM; for inhibition at 2000 µM: [test solute] = 2 mM
In short: as §1

[12] = read-out: PfCRT-mediated [3H]CQ transport, cis-inhibition (% PfCRTEcu1110 control)
[13] = read-out: Uptake of [3H]CQ (% PfCRTDd2 control), cis-inhibition, PfCRTEcu1110, SEM
[14] = read-out: Uptake of [3H]CQ (% PfCRTEcu1110 control), cis-inhibition
[15] = read-out: [3H]CQ transport (% PfCRTEcu1110 control), cis-inhibition, PfCRTEcu1110, SEM
[16] = read-out: PfCRT-mediated [3H]CQ transport, cis-inhibition (% PfCRTDd2 control)
[17] = read-out: Uptake of [3H]CQ (% PfCRTDd2 control), cis-inhibition, PfCRTDd2, SEM
[18] = Oocyte, mean ± SEM, SEM, read-out: Uptake of [3H]CQ (% PfCRTDd2 control), cis-inhibition, non-expressing oocytes
[19] = non-expressing oocytes, normalised to the oocyte type control, read-out: Uptake of [3H]CQ (% non-expressing oocyte control), cis-inhibition
[20] = PfCRT3D7 oocytes, normalised to the oocyte type control, read-out: Uptake of [3H]CQ (% PfCRT3D7 control), cis-inhibition
[21] = mean ± SEM, SEM, read-out: Uptake of [3H]CQ (% PfCRTDd2 control), cis-inhibition, PfCRT3D7

T2 sequence (Q9N623 whole entry A220S/I356T/K76T/M74I/N326S/N75E/Q271E/R371I): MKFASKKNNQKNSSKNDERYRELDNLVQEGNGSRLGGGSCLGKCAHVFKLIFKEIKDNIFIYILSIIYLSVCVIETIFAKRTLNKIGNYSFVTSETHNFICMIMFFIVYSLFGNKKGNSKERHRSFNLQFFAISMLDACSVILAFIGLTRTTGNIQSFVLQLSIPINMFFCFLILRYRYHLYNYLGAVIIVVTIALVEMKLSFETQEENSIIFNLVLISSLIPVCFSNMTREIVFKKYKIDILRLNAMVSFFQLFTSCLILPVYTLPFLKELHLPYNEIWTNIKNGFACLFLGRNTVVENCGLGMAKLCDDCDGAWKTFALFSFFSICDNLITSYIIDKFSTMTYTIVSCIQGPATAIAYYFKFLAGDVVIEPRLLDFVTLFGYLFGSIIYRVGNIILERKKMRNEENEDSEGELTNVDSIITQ
T4 sequence (Q8IDM6 whole entry): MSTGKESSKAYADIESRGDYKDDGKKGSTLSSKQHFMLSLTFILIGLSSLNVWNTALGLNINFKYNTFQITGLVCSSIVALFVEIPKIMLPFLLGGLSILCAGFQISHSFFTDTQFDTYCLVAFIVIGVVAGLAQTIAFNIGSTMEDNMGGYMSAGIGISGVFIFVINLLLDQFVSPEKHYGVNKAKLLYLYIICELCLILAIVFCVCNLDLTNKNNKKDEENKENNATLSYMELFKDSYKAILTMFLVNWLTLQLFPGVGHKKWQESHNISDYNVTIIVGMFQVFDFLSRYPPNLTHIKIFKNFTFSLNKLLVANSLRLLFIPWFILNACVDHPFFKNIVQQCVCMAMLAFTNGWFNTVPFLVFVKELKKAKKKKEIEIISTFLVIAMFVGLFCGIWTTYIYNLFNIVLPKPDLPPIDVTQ
T3 sequence (Q8IBZ9 59-398): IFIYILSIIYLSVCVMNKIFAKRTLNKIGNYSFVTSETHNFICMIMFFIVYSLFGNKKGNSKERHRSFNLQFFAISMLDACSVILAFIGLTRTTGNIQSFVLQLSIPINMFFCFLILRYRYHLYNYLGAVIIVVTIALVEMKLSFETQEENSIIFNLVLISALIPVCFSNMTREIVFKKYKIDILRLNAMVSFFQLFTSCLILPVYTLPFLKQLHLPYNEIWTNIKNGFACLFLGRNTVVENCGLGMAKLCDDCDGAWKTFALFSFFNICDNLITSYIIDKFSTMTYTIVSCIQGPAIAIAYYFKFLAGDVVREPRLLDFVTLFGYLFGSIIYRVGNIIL
T1 sequence (Q9N623 whole entry A220S/I356L/K76T/N326D): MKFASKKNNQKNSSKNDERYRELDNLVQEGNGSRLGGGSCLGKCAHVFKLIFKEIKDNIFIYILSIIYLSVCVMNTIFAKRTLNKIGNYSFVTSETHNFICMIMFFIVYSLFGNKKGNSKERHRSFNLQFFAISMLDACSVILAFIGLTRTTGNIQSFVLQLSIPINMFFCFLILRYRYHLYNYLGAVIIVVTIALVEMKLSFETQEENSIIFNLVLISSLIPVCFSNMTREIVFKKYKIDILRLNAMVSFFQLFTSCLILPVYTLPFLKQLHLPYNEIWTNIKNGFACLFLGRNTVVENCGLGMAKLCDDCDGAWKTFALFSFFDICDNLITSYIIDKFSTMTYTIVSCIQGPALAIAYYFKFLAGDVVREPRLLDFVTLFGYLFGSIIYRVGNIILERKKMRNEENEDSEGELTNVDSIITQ

N[C@@H](Cc1ccccc1)C(=O)O [L-phenylalanine]
Tested as potential co-substrate but not required for influx of VF-6 via PfCRT into the oocyte [1]: X | inhibition at 500 µM [2, 12]: 95 ± 3.6% | inhibition at 1000 µM [2, 12]: 95 ± 0.3% | inhibition at 500 µM [2, 13]: 32 ± 2.5% | inhibition at 1000 µM [2, 13]: 32 ± 1.5% | inhibition at 2000 µM [2, 13]: 32 ± 1.5% | inhibition at 500 µM [2, 14]: 97 ± 2.1% | inhibition at 1000 µM [2, 14]: 96 ± 1.8% | inhibition at 2000 µM [2, 14]: 98 ± 2.4% | inhibition at 500 µM [2, 15]: 29 ± 0.7% | inhibition at 1000 µM [2, 15]: 29 ± 1.7% | inhibition at 2000 µM [2, 15]: 29 ± 0.5% | inhibition at 500 µM [3, 16]: 94 ± 2.7% | inhibition at 1000 µM [3, 16]: 95 ± 2.7% | inhibition at 500 µM [3, 17]: 96 ± 3.6% | inhibition at 1000 µM [3, 17]: 97 ± 3.3% | inhibition at 2000 µM [3, 17]: 98 ± 2.2% | Uptake of [3H]CQ (% non-expressing oocyte control), trans-stimulation ([4]; [test solute]i = 5 mM): 98 ± 2.6 % non-expressing oocyte control | Uptake of [3H]CQ (% non-expressing oocyte control), trans-stimulation ([4]; [test solute]i = 45 mM (30 mM for some solutes due to solubility)): 99 ± 2.7 % non-expressing oocyte control | Uptake of [3H]CQ (% PfCRTDd2 control), trans-stimulation, non-expressing oocytes ([4]; [test solute]i = 5 mM (intracellular)): 2.4 ± 0.03 % PfCRTDd2 control | Uptake of [3H]CQ (% PfCRTDd2 control), trans-stimulation, non-expressing oocytes ([4]; [test solute]i = 45 mM (intracellular; 30 mM for some solutes due to solubility)): 2.2 ± 0.09 % PfCRTDd2 control | Tested as potential co-substrate but not required for influx of VF-6 via PfCRT into the oocyte [5]: X | inhibition at 500 µM [6, 18]: 3 ± 0.06% | inhibition at 1000 µM [6, 18]: 2.7 ± 0.04% | inhibition at 2000 µM [6, 18]: 2.3 ± 0.1% | inhibition at 500 µM [6, 19]: 98 ± 6.3% | inhibition at 1000 µM [6, 19]: 100 ± 4.6% | inhibition at 2000 µM [6, 19]: 99 ± 3.2% | activity at 5000 µM ([7]; PfCRT3D7 oocytes, [test solute]i = 5 mM, total [3H]CQ transport, normalised to the oocyte type control, read-out: Uptake of [3H]CQ (% PfCRT3D7 control), trans-stimulation): 98 ± 3.3% | [3H]CQ transport (% PfCRT3D7 control), trans-stimulation, PfCRT3D7 ([7]; SEM): 0.3 ± 0.01 % PfCRT3D7 control | activity at 5000 µM ([7]; [test solute]i = 5 mM (intracellular), PfCRT3D7 oocytes, normalised to oocyte type control, read-out: PfCRT-mediated [3H]CQ transport, trans-stimulation (% PfCRT3D7 control)): 96 ± 2.8% | activity at 45000 µM ([7]; SEM, read-out: Uptake of [3H]CQ (% PfCRTDd2 control), trans-stimulation, PfCRT3D7): 3.3 ± 0.05% | activity at 45000 µM ([7]; read-out: PfCRT-mediated [3H]CQ transport, trans-stimulation (% PfCRT3D7 control)): 96 ± 2.1% | activity at 45000 µM ([7]; read-out: Uptake of [3H]CQ (% PfCRT3D7 control), trans-stimulation): 98 ± 3% | activity at 5000 µM ([7]; total [3H]CQ transport, [test solute]i = 5 mM (intracellular), mean ± SEM, SEM, read-out: Uptake of [3H]CQ (% PfCRTDd2 control), trans-stimulation, PfCRT3D7): 3.3 ± 0.01% | activity at 5000 µM ([8]; pH 5.5, read-out: PfCRT-mediated [3H]CQ transport, trans-stimulation (% PfCRTEcu1110 control), [test solute]i = 5 mM (intracellular), PfCRTEcu1110 oocytes, normalised to oocyte type control): 96 ± 1.9% | activity at 5000 µM ([8]; pH 5.5, read-out: Uptake of [3H]CQ (% PfCRTEcu1110 control), trans-stimulation, PfCRTEcu1110 oocytes, [test solute]i = 5 mM, total [3H]CQ transport, normalised to the oocyte type control): 98 ± 3.4% | activity at 45000 µM ([8]; pH 5.5, read-out: Uptake of [3H]CQ (% PfCRTEcu1110 control), trans-stimulation, PfCRTEcu1110 oocytes, [test solute]i = 45 mM (30 mM for some solutes due to solubility), total [3H]CQ transport, normalised to the oocyte type control): 101 ± 3.2% | activity at 5000 µM ([8]; read-out: Uptake of [3H]CQ (% PfCRTDd2 control), trans-stimulation, PfCRTEcu1110, total [3H]CQ transport, [test solute]i = 5 mM (intracellular), mean ± SEM, SEM): 35 ± 1.3% | activity at 45000 µM ([8]; read-out: Uptake of [3H]CQ (% PfCRTDd2 control), trans-stimulation, PfCRTEcu1110, total [3H]CQ transport, [test solute]i = 45 mM (intracellular; 30 mM for some solutes due to solubility), mean ± SEM, SEM): 36 ± 1.7% | activity at 5000 µM ([9]; pH 5.5, read-out: PfCRT-mediated [3H]CQ transport, trans-stimulation (% PfCRTDd2 control), [test solute]i = 5 mM (intracellular), PfCRTDd2 oocytes, normalised to oocyte type control): 99 ± 3.9% | activity at 5000 µM ([9]; pH 5.5, read-out: Uptake of [3H]CQ (% PfCRTDd2 control), trans-stimulation, PfCRTDd2, total [3H]CQ transport, [test solute]i = 5 mM (intracellular), mean ± SEM, SEM): 101 ± 2.4% | activity at 5000 µM ([9]; pH 5.5, read-out: Uptake of [3H]CQ (% PfCRTDd2 control), trans-stimulation, PfCRTDd2 oocytes, [test solute]i = 5 mM, total [3H]CQ transport, normalised to the oocyte type control): 101 ± 2.4% | activity at 45000 µM ([9]; pH 5.5, read-out: Uptake of [3H]CQ (% PfCRTDd2 control), trans-stimulation, PfCRTDd2 oocytes, total [3H]CQ transport, normalised to the oocyte type control): 100 ± 2.2% | activity at 5000 µM ([9]; pH 5.5, read-out: [3H]CQ transport (% PfCRTDd2 control), trans-stimulation, PfCRTDd2, trans-stimulation, [test solute]i = 5 mM (injected), PfCRT-mediated component (background subtracted), mean ± SEM, SEM): 99 ± 3.9% | activity at 45000 µM ([9]; pH 5.5, read-out: [3H]CQ transport (% PfCRTDd2 control), trans-stimulation, PfCRTDd2, trans-stimulation, PfCRT-mediated component (background subtracted), mean ± SEM, SEM): 98 ± 3% | activity at 5000 µM ([10]; PfNT1 oocytes, [test solute]i = 5 mM, normalised to the oocyte type control, read-out: Uptake of [3H]CQ (% PfNT1 control), trans-stimulation): 99 ± 2.2% | activity at 45000 µM ([10]; SEM, read-out: Uptake of [3H]CQ (% PfCRTDd2 control), trans-stimulation, PfNT1): 2.8 ± 0.07% | activity at 45000 µM ([10]; read-out: Uptake of [3H]CQ (% PfNT1 control), trans-stimulation): 100 ± 2.5% | activity at 5000 µM ([10]; [test solute]i = 5 mM (intracellular), mean ± SEM, SEM, read-out: Uptake of [3H]CQ (% PfCRTDd2 control), trans-stimulation, PfNT1): 3 ± 0.01% | inhibition at 500 µM [11, 20]: 99 ± 4.3% | inhibition at 1000 µM [11, 20]: 99 ± 5.2% | inhibition at 2000 µM [11, 20]: 100 ± 3.6% | inhibition at 500 µM [11, 21]: 3.1 ± 0.06% | inhibition at 1000 µM [11, 21]: 3.1 ± 0.06% | inhibition at 2000 µM [11, 21]: 3.1 ± 0.07%

Reference: PMC7413254 (Nature Communications, 2020)
